Source: US11390604B2 (Hoffmann-La Roche Inc., priority 2019, dated 2022)
Counter-ions that a name gives are not always drawn. Like-named read-outs stand apart in the source and are kept apart here.

System: Acinetobacter baumannii ATCC 17961
Experiment: Antimicrobial susceptibility testing: 90% growth inhibitory concentration (IC90) determination
Assay type: cell-based
In short: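 Growth was followed kinetically by OD600 at 20-min intervals for 16 h at 35±2 °C, with ~5×10^5 CFU/ml in Iso-Sensitest broth. Compounds were tested as twofold dilutions (e.g. 50–0.097 μM final). The concentration giving 90% inhibition of log-phase growth was reported.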

[1] = ATCC17961, Acinetobacter baumannii ATCC 17961, Iso-Sensitest broth, read-out: ATCC 17961 IC90
[2] = Acinetobacter baumannii, ATCC17961, read-out: ATCC 17961 IC90, Acinetobacter baumannii ATCC 17961, Iso-Sensitest broth

Row | IC90 [1] [nM] | SMILES | IC90 [2] [nM]
1 | 426 | Cn1c(-c2cn(CC(F)F)nc2C(F)(F)F)cnc1C(=O)Nc1ccc(C(=O)N2CCNCC2)c(Cl)c1 [Example 336, N-(3-chloro-4-(piperazine-1-carbonyl)phenyl)-5-(1-(2,2-difluoroethyl)-3-(trifluoromethyl)-1H-pyrazol-4-yl)-1-methyl-1H-imidazole-2-carboxamide formate] | 
2 | 407 | Cn1c(-c2cn(C3CC3)nc2C(F)(F)F)cnc1C(=O)Nc1ccc(C(=O)N2CCC(C3CCNCC3)CC2)c(Cl)c1 [Example 323, N-(4-([4,4′-bipiperidine]-1-carbonyl)-3-chlorophenyl)-5-(1-cyclopropyl-3-(trifluoromethyl)-1H-pyrazol-4-yl)-1-methyl-1H-imidazole-2-carboxamide formate] | 
3 |  | Cn1c(-c2cn(C3CC3(F)F)nc2C(F)(F)F)cnc1C(=O)Nc1ccc(C(=O)N2CCC(F)(CNC(=O)N[C@H]3CNC[C@@H]3O)CC2)c(Cl)c1 (relative stereo) [Example 179, N-(3-chloro-4-(4-fluoro-4-((3-(trans-4-hydroxypyrrolidin-3-yl)ureido)methyl)piperidine-1-carbonyl)phenyl)-5-(1-(2,2-difluorocyclopropyl)-3-(trifluoromethyl)-1H-pyrazol-4-yl)-1-methyl-1H-imidazole-2-carboxamide Formate] | 192
4 | 256 | Cn1c(-c2cn(C3CC3)nc2C(F)(F)F)cnc1C(=O)Nc1ccc(C(=O)N2CCN(C(=O)N[C@H]3C[C@H](N)C3)CC2)c(Cl)c1 [Example 225, N-(3-aminocyclobutyl)-4-[2-chloro-4-[[5-[1-cyclopropyl-3-(trifluoromethyl)pyrazol-4-yl]-1-methylimidazole-2-carbonyl]amino]benzoyl]pipera-zine-1-carboxamide;formic acid] | 
5 | 1040 | Cn1c(-c2cn(CCC#N)nc2C(F)(F)F)cnc1C(=O)Nc1ccc(C(=O)N2CCN(C(=O)C3CCNCC3)CC2)c(Cl)c1 [Example 5, N-(3-chloro-4-(4-(piperidine-4-carbonyl)piperazine-1-carbonyl)phenyl)-5-(1-(2-cyanoethyl)-3-(trifluoromethyl)-1H-pyrazol-4-yl)-1-methyl-1H-imidazole-2-carboxamide] | 
6 | 1160 | CCc1cc(NC(=O)c2ncc(-c3cn(CC#N)nc3C(F)(F)F)n2C)ccc1C(=O)N1CCN(C(=O)N2CCCC2CN)CC1 (centres unmarked) [Example 139, N-[4-[4-[2-(aminomethyl)pyrrolidine-1-carbonyl]piperazine-1-carbonyl]-3-ethylphenyl]-5-[1-(cyanomethyl)-3-(trifluoromethyl)pyrazol-4-yl]-1-methylimidazole-2-carboxamide;formic acid] | 
7 | 314 | Cn1c(-c2cn(C3CC3)nc2C(F)(F)F)cnc1C(=O)Nc1ccc(C(=O)N2CCN(C(=O)[C@]3(C)CCCN3)CC2)c(Cl)c1 [Example 258, (S)-N-(3-chloro-4-(4-(2-methylpyrrolidine-2-carbonyl)piperazine-1-carbonyl)phenyl)-5-(1-cyclopropyl-3-(trifluoromethyl)-1H-pyrazol-4-yl)-1-methyl-1H-imidazole-2-carboxamide hydrochloride] | 
8 |  | Cn1c(-c2cn(CC3CC3(F)F)nc2C(F)(F)F)cnc1C(=O)Nc1ccc(C(=O)N2CCN(C(=O)N[C@H]3C[C@@H](N)C3)CC2)c(Cl)c1 (mixture of isomers) [Example 254, rac-N-((1s,3s)-3-aminocyclobutyl)-4-(2-chloro-4-(5-(1-((2,2-difluorocyclopropyl)methyl)-3-(trifluoromethyl)-1H-pyrazol-4-yl)-1-methyl-1H-imidazole-2-carboxamido)benzoyl)piperazine-1-carboxamide hydrochloride] | 311
9 | 339 | CCn1cc(-c2cnc(C(=O)Nc3ccc(C(=O)N4CCN(C(=O)C5CCNCC5)CC4)c(Cl)c3)n2C)c(C(F)(F)F)n1 [Example 114, N-[3-chloro-4-[4-(piperidine-4-carbonyl)piperazine-1-carbonyl]phenyl]-5-[1-ethyl-3-(trifluoromethyl)pyrazol-4-yl]-1-methylimidazole-2-carboxamide;hydrochloride] | 
10 | 170 | C#CCn1cc(-c2cnc(C(=O)Nc3ccc(C(=O)N4CCN(C(=O)N5C[C@@H]6C[C@H]5CN6)CC4)c(Cl)c3)n2C)c(C(F)(F)F)n1 [Example 88, N-[3-chloro-4-[4-[(1S,4S)-2,5-diazabicyclo[2.2.1]heptane-2-carbonyl]piperazine-1-carbonyl]phenyl]-1-methyl-5-[1-prop-2-ynyl-3-(trifluoromethyl)pyrazol-4-yl]imidazole-2-carboxamide] | 
11 | 226 | Cn1c(-c2cn(C3CC3)nc2C(F)(F)F)cnc1C(=O)Nc1ccc(C(=O)N2CCC(CN)CC2)c(Cl)c1 [Example 207, N-(4-(4-(aminomethyl)piperidine-1-carbonyl)-3-chlorophenyl)-5-(1-cyclopropyl-3-(trifluoromethyl)-1H-pyrazol-4-yl)-1-methyl-1H-imidazole-2-carboxamide formate] | 
12 | 325 | CCn1cc(-c2cnc(C(=O)Nc3ccc(C(=O)N4CCN(C(=O)[C@H]5[C@@H]6CNC[C@@H]65)CC4)c(Br)c3)n2C)c(C(F)(F)F)n1 [Example 263, N-[3-bromo-4-[4-[rac-(1R,5S)-3-azabicyclo[3.1.0]hexane-6-carbonyl]piperazine-1-carbonyl]phenyl]-5-[1-ethyl-3-(trifluoromethyl)pyrazol-4-yl]-1-methylimidazole-2-carboxamide;hydrochloride] | 
13 | 335 | Cn1c(-c2cn(C3CC3(F)F)nc2C(F)(F)F)cnc1C(=O)Nc1ccc(C(=O)N2C[C@H]3CNC[C@H]3C2)c(Cl)c1 (mixture of isomers) [Example 271, rac-N-(3-chloro-4-((3aR,6aS)-octahydropyrrolo[3,4-c]pyrrole-2-carbonyl)phenyl)-5-(1-(2,2-difluorocyclopropyl)-3-(trifluoromethyl)-1H-pyrazol-4-yl)-1-methyl-1H-imidazole-2-carboxamide formate] | 
14 | 480 | Cn1c(-c2cn(C3CCC3)nc2C(F)(F)F)cnc1C(=O)Nc1ccc(C(=O)NC2CC(N)C2)c(Cl)c1 (centres unmarked) [Example 125, N-[4-[(3-aminocyclobutyl)carbamoyl]-3-chlorophenyl]-5-[1-cyclobutyl-3-(trifluoromethyl)pyrazol-4-yl]-1-methylimidazole-2-carboxamide;hydrochloride] | 
15 | 393 | Cn1c(-c2cn(C3CC3)nc2C(F)(F)F)cnc1C(=O)Nc1ccc(C(=O)NC2CC3(CC(N)C3)C2)c(Cl)c1 (centres unmarked) [Example 317, N-(4-((6-aminospiro[3.3]heptan-2-yl)carbamoyl)-3-chlorophenyl)-5-(1-cyclopropyl-3-(trifluoromethyl)-1H-pyrazol-4-yl)-1-methyl-1H-imidazole-2-carboxamide hydrochloride] | 
16 | 314 | Cn1c(-c2cn(C3C=C(F)C3)nc2C(F)(F)F)cnc1C(=O)Nc1ccc(C(=O)N[C@H]2[C@@H]3CN(C(=O)C4CCNCC4)C[C@@H]32)c(Cl)c1 (stereo partly drawn) [Example 259, N-(3-chloro-4-(((exo)-3-(piperidine-4-carbonyl)-3 azabicyclo[3.1.0]hexan-6-yl)carbamoyl)phenyl)-5-(1-(3-fluorocyclobut-2-en-1-yl)-3-(trifluoromethyl)-1H-pyrazol-4-yl)-1-methyl-1H-imidazole-2-carboxamide formate] | 
17 | 775 | CCc1cc(NC(=O)c2ncc(-c3cn(CC#N)nc3C(F)(F)F)n2C)ccc1C(=O)N1CCN(C(=O)N2CCCC(N)C2)CC1 (centres unmarked) [Example 133, N-[4-[4-(3-aminopiperidine-1-carbonyl)piperazine-1-carbonyl]-3-ethylphenyl]-5-[1-(cyanomethyl)-3-(trifluoromethyl)pyrazol-4-yl]-1-methylimidazole-2-carboxamide;formic acid] | 
18 | 235 | C#CCn1cc(-c2cnc(C(=O)Nc3ccc(C(=O)N4CCN(C(=O)NC5CC6(CNC6)C5)CC4)c(Cl)c3)n2C)c(C(F)(F)F)n1 [Example 89, N-(2-azaspiro[3.3]heptan-6-yl)-4-[2-chloro-4-[[1-methyl-5-[1-prop-2-ynyl-3-(trifluoromethyl)pyrazol-4-yl]imidazole-2-carbonyl]amino]benzoyl]piperazine-1-carboxamide] | 
19 | 335 | C#CCn1cc(-c2cnc(C(=O)Nc3ccc(C(=O)N4CCN(C(=O)C5CCN(C)CC5)CC4)c(Cl)c3)n2C)c(C(F)(F)F)n1 [Example 13, N-(3-chloro-4-(4-(1-methylpiperidine-4-carbonyl)piperazine-1-carbonyl)phenyl)-1-methyl-5-(1-(prop-2-yn-1-yl)-3-(trifluoromethyl)-1H-pyrazol-4-yl)-1H-imidazole-2-carboxamide] | 
20 | 344 | Cn1c(-c2cn(CC(F)F)nc2C(F)(F)F)cnc1C(=O)Nc1ccc(S(=O)(=O)N2CCN(C(=O)N[C@@H]3CNC[C@H]3O)CC2)cc1 (racemic) [Example 279, rac-4-((4-(5-(1-(2,2-difluoroethyl)-3-(trifluoromethyl)-1H-pyrazol-4-yl)-1-methyl-1H-imidazole-2-carboxamido)phenyl)sulfonyl)-N-((3R,4R)-4-hydroxypyrrolidin-3-yl)piperazine-1-carboxamide formate] | 
21 | 475 | Cn1c(-c2cn(CC#N)nc2C(F)(F)F)cnc1C(=O)Nc1ccc(C(=O)N2CCN(C(=O)NC3CNC3)CC2)c(Cl)c1 [Example 151] | 
22 | 1160 | CCc1cc(NC(=O)c2ncc(-c3cn(Cc4cccnc4)nc3C(F)(F)F)n2C)ccc1C(=O)N1CCN(C(=O)C2CCNCC2)CC1 [Example 159, N-[3-ethyl-4-[4-(piperidine-4-carbonyl)piperazine-1-carbonyl]phenyl]-1-methyl-5-[1-(pyridin-3-ylmethyl)-3-(trifluoromethyl)pyrazol-4-yl]imidazole-2-carboxamide;formic acid] | 
23 | 286 | Cn1c(-c2cn(C3CC3)nc2C(F)(F)F)cnc1C(=O)Nc1ccc(C(=O)N2CCN(C(=O)[C@@H]3CCC[C@@H]3N)CC2)c(Cl)c1 [Example 243, N-(4-(4-((1R,2S)-2-aminocyclopentane-1-carbonyl)piperazine-1-carbonyl)-3-chlorophenyl)-5-(1-cyclopropyl-3-(trifluoromethyl)-1H-pyrazol-4-yl)-1-methyl-1H-imidazole-2-carboxamide hydrochloride] | 
